16 compounds from PubChem BioAssay (NCI) can be followed below.

Some test systems named below: IGROV1 ovarian; ACHN renal; CAKI-1 renal; NCI-H522 lung; HCT-116 colon; A498 renal; SK-OV-3 ovarian; HOP-62 NSCLC.
Common to all, as to assay: NCI-60 cell line screen, 48 h

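Where inhibition never reached the appropriate level, the endpoint shown equals the highest concentration tested. Otherwise, values were interpolated linearly from a five-concentration, 48-hour dose response in 96-well plates. The concentration for 50% growth inhibition is given as GI50. Definition used: TGI = concentration required for complete inhibition of growth.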

As for `COC1=CC2(C=CC1=O)c1cc(OC)c(OC)cc1CCN2C(=O)c1ccccc1` (stereo unspecified), the TGI with IGROV1 ovarian, in the assay on ACHN renal, with CAKI-1 renal, in the assay with NCI-H522 lung, in the assay with HCT-116 colon and with A498 renal was over 100 µM in each case. This compound also came in with a TGI with SK-OV-3 ovarian of over 100 µM.

With `CCCCCCC(=O)C/C(=N/NC(N)=S)C(=O)NC1C2CC3CC(C2)CC1C3` (stereo unspecified), the TGI with IGROV1 ovarian, with HOP-62 NSCLC, in the assay with ACHN renal and with HCT-116 colon was over 100 µM in each case.

`N.N.O=C([O-])P(=O)([O-])[O-].[Na+].[Pt+4]`: the GI50 with IGROV1 ovarian, with HOP-62 NSCLC, with ACHN renal, in the assay with CAKI-1 renal, in the assay with NCI-H522 lung and in the assay on HCT-116 colon was over 100 µM throughout. The GI50 in the assay on A498 renal and with SK-OV-3 ovarian was over 100 µM in each case. Also, the TGI in the assay on IGROV1 ovarian, with HOP-62 NSCLC, in the assay with ACHN renal, in the assay on CAKI-1 renal, in the assay on NCI-H522 lung and in the assay on HCT-116 colon was over 100 µM in each case. Besides, the TGI in the assay with A498 renal and with SK-OV-3 ovarian was over 100 µM throughout.

As for `Cc1nc2ccccc2c(=O)n1-c1ccccc1F`, the TGI with IGROV1 ovarian, in the assay with HOP-62 NSCLC, in the assay on ACHN renal, in the assay on CAKI-1 renal, in the assay with NCI-H522 lung and in the assay on HCT-116 colon was over 100 µM throughout. The TGI in the assay on A498 renal and in the assay with SK-OV-3 ovarian was over 100 µM throughout.

For `CC(C)c1ccc(C(c2ccc(OCC(=O)O)cc2)c2ccc(C(C)C)cc(=O)c2O)c(O)c(=O)c1`, the TGI in the assay on IGROV1 ovarian was 21 µM; with HOP-62 NSCLC it was 26.2 µM; in the assay with ACHN renal, 28 µM; in the assay with CAKI-1 renal, 18.1 µM; with HCT-116 colon, 14.1 µM; in the assay on A498 renal, 69.5 µM. Moreover, the TGI in the assay on SK-OV-3 ovarian stood at 41.9 µM.

Regarding `CC(=O)O.[Au].c1ccc([PH+](c2ccccc2)c2ccccc2)cc1`, the GI50 in the assay with IGROV1 ovarian was 2.24 µM; in the assay on HOP-62 NSCLC, 13.7 µM; in the assay on ACHN renal, 2.86 µM; in the assay with CAKI-1 renal, 2.27 µM; in the assay on NCI-H522 lung, 0.526 µM; in the assay with HCT-116 colon it was 1.72 µM. For the same compound, in the assay on SK-OV-3 ovarian, the GI50 was 15.8 µM. The TGI in the assay on IGROV1 ovarian was found to be 6.95 µM; with HOP-62 NSCLC, 27.7 µM; with ACHN renal it was 8.53 µM; in the assay with CAKI-1 renal, 5.35 µM; with NCI-H522 lung, 1.96 µM; in the assay with HCT-116 colon, 3.2 µM. Further, in the assay with SK-OV-3 ovarian, the TGI amounted to 29.2 µM.

Consider `CCCS(=O)(=O)/C(=C(\c1ccc(Br)cc1)S(=O)(=O)CCC)c1ccc(Br)cc1`, for which the TGI in the assay with IGROV1 ovarian, in the assay with HOP-62 NSCLC, with ACHN renal, in the assay on CAKI-1 renal, with NCI-H522 lung and in the assay with HCT-116 colon was over 10 µM in each case. The TGI in the assay on A498 renal and with SK-OV-3 ovarian was over 10 µM in each case.

Take `CC(=O)N1C/C(=C\c2ccc(N(C)C)cc2)C(=O)/C(=C/c2ccc(N(C)C)cc2)C1`: the TGI with IGROV1 ovarian, in the assay on HOP-62 NSCLC, in the assay on ACHN renal, in the assay with CAKI-1 renal, with HCT-116 colon and in the assay on A498 renal was over 100 µM each time. Further, in the assay with SK-OV-3 ovarian, the TGI was over 100 µM.

For the compound `OC/C=C(\I)CCCOCOCc1ccccc1`, the TGI in the assay on IGROV1 ovarian is over 100 µM; with HOP-62 NSCLC, over 100 µM; in the assay with ACHN renal it was over 100 µM; in the assay on NCI-H522 lung, 80.2 µM; in the assay on HCT-116 colon, over 100 µM; with A498 renal, over 100 µM. In addition, in the assay on SK-OV-3 ovarian, the TGI was over 100 µM.

In the case of `CC1=N/C(=C\c2cccc([N+](=O)[O-])c2)C(=O)O1`, the TGI in the assay with IGROV1 ovarian, in the assay with HOP-62 NSCLC, in the assay on ACHN renal, with NCI-H522 lung, in the assay with HCT-116 colon and with A498 renal was over 100 µM in each case.

As for `C/C=C1/C(=C/c2[nH]c(/C=c3\[nH]/c(=C/C4=NC(=O)C(CC)=C4C)c(C)c3CCC(=O)O)c(CCC(=O)O)c2C)NC(=O)C1C` (stereo unspecified), the GI50 in the assay with IGROV1 ovarian, with HOP-62 NSCLC, in the assay with ACHN renal, in the assay on NCI-H522 lung, in the assay with HCT-116 colon and with A498 renal was over 150 µg/mL each time. In addition, the TGI in the assay with IGROV1 ovarian, in the assay on HOP-62 NSCLC, with ACHN renal, in the assay with NCI-H522 lung, with HCT-116 colon and in the assay with A498 renal was over 150 µg/mL throughout.

As to `CC(C)c1cc2c(O)c(c1)Cc1cc(C(C)C)cc(c1O)Cc1cc(C(C)C)cc(c1O)Cc1cc(C(C)C)cc(c1O)C2`, the TGI with IGROV1 ovarian, in the assay with HOP-62 NSCLC, with CAKI-1 renal, in the assay with NCI-H522 lung, in the assay with HCT-116 colon and in the assay with A498 renal was over 100 µM throughout. In addition, the TGI with SK-OV-3 ovarian was over 100 µM.

As to `N#CCC(=O)NC1C2CC3CC(C2)CC1C3` (stereo unspecified), the TGI came out at 59.1 µM in the assay with IGROV1 ovarian; 41.7 µM with HOP-62 NSCLC; 33.3 µM with ACHN renal; 34.1 µM with CAKI-1 renal; 31 µM in the assay on NCI-H522 lung; 29.2 µM with HCT-116 colon. The TGI in the assay on A498 renal came out at 30.2 µM; with SK-OV-3 ovarian it was 78.6 µM.

Turning to `N#CCc1ccc(C(C#N)/C(CCCC(=O)Nc2cccc([N+](=O)[O-])c2)=N/NC(N)=S)cc1` (stereo unspecified), the TGI in the assay with IGROV1 ovarian, in the assay on HOP-62 NSCLC, with ACHN renal, with CAKI-1 renal, in the assay with NCI-H522 lung and with HCT-116 colon was over 100 µM in each case. The TGI with A498 renal and in the assay with SK-OV-3 ovarian was over 100 µM each time.

For the compound `Fc1ccc(C2SCc3nc4ccccc4n32)cc1Cl` (stereo unspecified), the TGI with HOP-62 NSCLC is 55.9 µM; in the assay on ACHN renal, over 100 µM; with CAKI-1 renal, 38.4 µM; in the assay with NCI-H522 lung it was 35.2 µM; in the assay with A498 renal, over 100 µM; with SK-OV-3 ovarian, 49.5 µM.

In the case of `COC(=O)c1cc(C)c(C)c2c1NC(=O)CNC2=O`, the TGI in the assay on IGROV1 ovarian, in the assay with HOP-62 NSCLC, in the assay on ACHN renal, in the assay with CAKI-1 renal, with HCT-116 colon and in the assay with A498 renal was over 100 µM each time.
